In the test the test system is human whole blood. In words: IFN-α/β, IFN-γ, and TNF-α/IL-1β whole blood reporter gene assays (cytokine release). Format: cell-based. The conditions noted are these: FIG. 4. The procedure: IFN-α/β, IFN-γ, and TNF-α/IL-1β Whole Blood Reporter Gene Assays. Whole heparinized blood is collected from consenting individuals, as approved by the University of Minnesota Institutional Review Board, and is diluted 1:2 in RPMI supplemented with 10% fetal bovine serum (FBS). Forty microliters is added to 384-well, flat-bottomed, cell culture-treated microtiter plates containing serial dilutions of compounds. Following incubation at 37° C. for 24 h, […] of supernatant is transferred to separate 384-well plates using a liquid handler equipped with liquid level sensing in order to avoid disturbing the erythrocyte-rich pellet. Forty microliters of HEK-IFNα/β, HEK-IFNγ, or HEK-TNFα/IL-β cytokine reporter cells (InvivoGen, San Diego, CA) harvested at a density of 1×10^6 cells/mL in DMEM with 10% FBS is added to the supernatant plates and incubated at 37° C. for 24 h. […] Sigmoidal dose-response profiles for each cytokine are observed (Beesu M. et al. J. Med. Chem. 2017, 2084), from which threshold cytokine concentrations corresponding to maximal responses for each cytokine reporter cell line are recorded. […]
(In general: A reporter such as luciferase makes a cellular process visible.)

Molecules are shown by their SMILES.

As to `CCCCc1nc2c(N)nc3ccccc3c2n1Cc1cc(C)c(O)c(CN)c1` [Compound 29, 4-((4-Amino-2-butyl-1H-imidazo[4,5-c]quinolin-1-yl)methyl)-2-(aminomethyl)-6-methylphenol], the “cytokine release in human whole blood” value was “can induce cytokine release strongly”.

(Values after patent publication US12060350B2, “Therapeutic compounds and methods of use thereof” (REGENTS OF THE UNIVERSITY OF MINNESOTA, priority 2018, dated 2024).)
